Results on five compounds are retold here after patent publication US8273769B2, “Phenoxy acetic acid derivatives” (Merck Serono SA, priority 2009, dated 2012).

In series [1] the test system is OVA-induced lung eosinophilia in mice. Description: OVA-induced lung eosinophilia in mice. In kind it is in vivo, BALB/c mice. To be noted: BAL fluid, dose 1 mg/kg. The method, then:
BALB/c mice (6-8 weeks old) were immunized with ovalbumin (10 μg i.p) on day 0 and 7. In order to elicit a local inflammatory response in the lung, mice were challenged between day's 15-17 with a nebulised solution of ovalbumin (10 μg/ml; De Vilibiss Ultraneb 2000, once daily for 30 min during the 3 days). On each separate day between 15 and 17 each animal received via oral gavage the test compound, at t−1 h and t+7 h with respect to OVA exposure at t=0 h. Eight hours after the final OVA challenge, bronchoalveolar lavage (BAL) was then carried out. Total cell numbers in the BAL fluid samples were measured using a haemocytometer. Cytospin smears of the BAL fluid samples were prepared by centrifugation at 1200 rpm for 2 min at room temperature and stained using a DiffQuik stain system (Dade Behring) for differential cell counts. […]

The target of series [2] is T1, CRTH2 (Homo sapiens, UniProt Q9Y5Y4).
T1 sequence (Q9Y5Y4 1-395): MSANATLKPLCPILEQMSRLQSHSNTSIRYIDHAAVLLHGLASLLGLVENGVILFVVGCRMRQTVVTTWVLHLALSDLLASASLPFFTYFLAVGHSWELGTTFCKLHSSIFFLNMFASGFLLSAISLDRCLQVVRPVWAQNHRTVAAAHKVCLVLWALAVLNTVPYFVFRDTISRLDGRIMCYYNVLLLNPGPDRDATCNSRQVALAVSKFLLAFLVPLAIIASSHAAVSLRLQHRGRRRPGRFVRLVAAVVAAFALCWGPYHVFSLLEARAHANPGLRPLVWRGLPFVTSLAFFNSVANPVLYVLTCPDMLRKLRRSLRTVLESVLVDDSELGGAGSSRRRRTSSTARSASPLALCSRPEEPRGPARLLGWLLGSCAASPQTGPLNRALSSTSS
Nature of the series: Radioligand binding Scintillation Proximity Assay ([3H]PGD2, hCRTH2-CHO cell membranes). To be noted: 1.5 nM [3H]PGD2, hCRTH2-CHO cell membranes, SPA. The arrangement: host or cells: CHO cells. In short, it runs like this:
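SPA competition binding at room temperature, 90 min with agitation: 1.5 nM [3H]PGD2, 10-50 μg/ml hCRTH2-CHO membrane protein, WGA SPA beads, HEPES pH 7.4 with 10 mM MnCl2, 1% DMSO. Non-specific binding defined with 10 μM PGD2; scintillation counting.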

For `C[C@@H]1C[C@H]2[C@@H]3CCC4=CC(=O)C=C[C@]4(C)[C@@]3(F)[C@@H](O)C[C@]2(C)[C@@]1(O)C(=O)CO` [Dexamethasone], in series [1], the “% inhibition eosinophils (mean ± s.e.m.)” value worked out at 90 ± 10% and the “% inhibition total cells (mean ± s.e.m.)” value is reported as 88 ± 11%.
`CCS(=O)(=O)c1ccc(F)c(C#Cc2cc(Cl)ccc2OCC(=O)O)c1` [Example 104, (4-chloro-2-{[5-(ethylsulfonyl)-2-fluorophenyl]ethynyl}phenoxy)acetic acid] yielded a melting point of 165 to 169 °C. Further, in series [2], the IC50 is 3 nM.
For `CC(C)CS(=O)(=O)c1ccc(F)c(C#Cc2cc(Cl)ccc2OCC(=O)O)c1` [Example 105, (4-chloro-2-{[2-fluoro-5-(isobutylsulfonyl)phenyl]ethynyl}phenoxy)acetic acid] the same measures were 141 to 143 °C and 2 nM.
Turning to `COCCS(=O)(=O)c1ccc(F)c(C#Cc2cc(Cl)ccc2OCC(=O)O)c1` [Example 106, [4-chloro-2-({2-fluoro-5-[(2-methoxyethyl)sulfonyl]phenyl}ethynyl)phenoxy]acetic acid], the melting point lay in the range of 125 to 128 °C. In addition, the IC50 in series [2] turned out to be 2 nM.
Consider `COC1(C)c2ccc(C#Cc3cc(Cl)ccc3OCC(=O)O)cc2S(=O)(=O)C1(C)C` (stereo not shown) [Example 162, {4-chloro-2-[(3-methoxy-2,2,3-trimethyl-1,1-dioxido-2,3-dihydro-1-benzothien-6-yl)ethynyl]phenoxy}acetic acid], for which the melting point was 80 to 95 °C. The compound also yielded an IC50 in series [2] of 29 nM.
